Results as given in ChEMBL document CHEMBL1156855, “Identification of potent and selective VEGFR receptor tyrosine kinase inhibitors having new amide isostere headgroups” (Bioorg Med Chem Lett, 2010).
Each block holds one compound with its values, some of them ahead of it. Activity calls are given as the source filed them. The rule behind the calls is not given here.

How the values were obtained:
[1] = biological target: Vascular endothelial growth factor receptor 2 (Homo sapiens, UniProt P35968); experiment: Inhibition of recombinant GST-fused VEGFR2 expressed in baculovirus infected Sf9 cells by DELFIA
[2] = biological target: T1, Hepatocyte growth factor receptor (Homo sapiens, UniProt P08581); experiment: Inhibition of recombinant GST-fused c-Met expressed in baculovirus infected high five cells by DELFIA
[3] = biological target: T1, Hepatocyte growth factor receptor; experiment: Inhibition of TPR-fused Met autophosphorylation expressed in HEK293T cells after 150 mins by ELISA; format: cell-based; settings: hek-293t
[4] = biological target: Angiopoietin-1 receptor (Homo sapiens) (UniProt Q02763); experiment: Inhibition of human Tie2
[5] = biological target: T1, Hepatocyte growth factor receptor; experiment: Inhibition of human c-MET
[6] = biological target: Macrophage-stimulating protein receptor (Homo sapiens) (UniProt Q04912); experiment: Inhibition of human RON
[7] = biological target: Receptor-type tyrosine-protein kinase FLT3 (Homo sapiens) (UniProt P36888); experiment: Inhibition of human Flt3
[8] = biological target: Aurora kinase A (Homo sapiens) (UniProt O14965); experiment: Inhibition of human Aurora A
[9] = biological target: Vascular endothelial growth factor receptor 1 (Homo sapiens) (UniProt P17948); experiment: Inhibition of human VEGFR1
[10] = biological target: Vascular endothelial growth factor receptor 3 (Homo sapiens) (UniProt P35916); experiment: Inhibition of human VEGFR3
HUVEC [11] = experiment: Inhibition of VEGF-induced HUVEC proliferation; format: functional, cell-based; settings: Homo sapiens
HUVEC [12] = experiment: Antiangiogenic activity in HUVEC assessed as inhibition of tubule length; format: functional, cell-based; settings: Homo sapiens
HUVEC [13] = experiment: Antiangiogenic activity in HUVEC assessed as inhibition of VEGF-induced tubule growth at 100 nM; format: functional; settings: Homo sapiens
HUVEC [14] = experiment: Antiangiogenic activity in HUVEC assessed as inhibition of tubule branching; format: functional, cell-based; settings: Homo sapiens
HUVEC [15] = experiment: Antiangiogenic activity in HUVEC assessed as inhibition of VEGF-induced tubule branching at 100 nM; format: functional; settings: Homo sapiens
[16] = biological target: Vascular endothelial growth factor receptor 1 (Homo sapiens) (UniProt P17948); experiment: Inhibition of human VEGFR1 at 0.1 uM
[17] = biological target: Vascular endothelial growth factor receptor 3 (Homo sapiens) (UniProt P35916); experiment: Inhibition of human VEGFR3 at 0.1 uM
[18] = biological target: High affinity nerve growth factor receptor (Homo sapiens) (UniProt P04629); settings: 0.1 uM
Description: Inhibition of human TrkA at 0.1 uM

[19] = biological target: ALK tyrosine kinase receptor (Homo sapiens) (UniProt Q9UM73); settings: 0.1 uM
Description: Inhibition of human ALK at 0.1 uM

[20] = biological target: Cytoplasmic tyrosine-protein kinase BMX (Homo sapiens) (UniProt P51813); settings: 0.1 uM
Description: Inhibition of human Bmx at 0.1 uM

[21] = biological target: Serine/threonine-protein kinase Chk1 (Homo sapiens) (UniProt O14757); settings: 0.1 uM
Description: Inhibition of human CHK1 at 0.1 uM

[22] = biological target: Mast/stem cell growth factor receptor Kit (Homo sapiens) (UniProt P10721); settings: 0.1 uM
Description: Inhibition of human c-Kit at 0.1 uM

[23] = biological target: RAF proto-oncogene serine/threonine-protein kinase (Homo sapiens) (UniProt P04049); settings: 0.1 uM
Description: Inhibition of human c-Raf at 0.1 uM

[24] = biological target: Glycogen synthase kinase-3 beta (Homo sapiens) (UniProt P49841); settings: 0.1 uM
Description: Inhibition of human GSK3-beta at 0.1 uM

[25] = biological target: Serine/threonine-protein kinase haspin (Homo sapiens) (UniProt Q8TF76); settings: 0.1 uM
Description: Inhibition of human haspin at 0.1 uM

[26] = biological target: Inhibitor of nuclear factor kappa-B kinase subunit beta (Homo sapiens) (UniProt O14920); settings: 0.1 uM
Description: Inhibition of human IKK-beta at 0.1 uM

[27] = biological target: Tyrosine-protein kinase JAK2 (Homo sapiens) (UniProt O60674); settings: 0.1 uM
Description: Inhibition of human JAK2 at 0.1 uM

[28] = biological target: Tyrosine-protein kinase JAK3 (Homo sapiens) (UniProt P52333); settings: 0.1 uM
Description: Inhibition of human JAK3 at 0.1 uM

[29] = biological target: LIM domain kinase 1 (Homo sapiens) (UniProt P53667); settings: 0.1 uM
Description: Inhibition of human LIMK1 at 0.1 uM

[30] = biological target: Dual specificity mitogen-activated protein kinase kinase 1 (Homo sapiens) (UniProt Q02750); settings: 0.1 uM
Description: Inhibition of human MEK1 at 0.1 uM

[31] = biological target: 3-phosphoinositide-dependent protein kinase 1 (Homo sapiens) (UniProt O15530); settings: 0.1 uM
Description: Inhibition of human PDK1 at 0.1 uM

[32] = biological target: Phosphatidylinositol 4,5-bisphosphate 3-kinase catalytic subunit beta isoform (Homo sapiens) (UniProt P42338); settings: 0.1 uM
Description: Inhibition of human PI3Kbeta at 0.1 uM

[33] = biological target: Serine/threonine-protein kinase pim-1 (Homo sapiens) (UniProt P11309); settings: 0.1 uM
Description: Inhibition of human Pim1 at 0.1 uM

[34] = biological target: RAC-alpha serine/threonine-protein kinase (Homo sapiens) (UniProt P31749); settings: 0.1 uM
Description: Inhibition of human PKBalpha at 0.1 uM

[35] = biological target: Proto-oncogene tyrosine-protein kinase receptor Ret (Homo sapiens) (UniProt P07949); settings: 0.1 uM
Description: Inhibition of human Ret at 0.1 uM

[36] = biological target: Focal adhesion kinase 1 (Homo sapiens) (UniProt Q05397); settings: 0.1 uM
Description: Inhibition of human FAK at 0.1 uM

[37] = biological target: Ephrin type-B receptor 4 (Homo sapiens) (UniProt P54760); settings: 0.1 uM
Description: Inhibition of human EphB4 at 0.1 uM

[38] = biological target: Receptor-type tyrosine-protein kinase FLT3 (Homo sapiens) (UniProt P36888); settings: 0.1 uM
Description: Inhibition of human Flt3 at 0.1 uM

[39] = biological target: T1, Hepatocyte growth factor receptor; settings: 0.1 uM
Description: Inhibition of human c-MET at 0.1 uM

[40] = biological target: Macrophage-stimulating protein receptor (Homo sapiens) (UniProt Q04912); settings: 0.1 uM
Description: Inhibition of human RON at 0.1 uM

[41] = biological target: Angiopoietin-1 receptor (Homo sapiens) (UniProt Q02763); settings: 0.1 uM
Description: Inhibition of human Tie2 at 0.1 uM

Structure (SMILES): CN(C(=O)CC(=O)Nc1ccc(Oc2ccnc3cc(-c4cn(C)cn4)sc23)c(F)c1)c1ccccc1
- IC50 [2]: 40 nM

Structure (SMILES): COc1cc2ncnc(Oc3ccc(NC(=O)CC(Nc4ccccc4)C(F)(F)F)cc3F)c2cc1OC (configuration not stated)
- IC50 [1]: 860 nM
- IC50 [2]: > 5000 nM

Structure (SMILES): Cn1cnc(-c2cc3nccc(Oc4ccc(NC(CC(=O)Nc5ccc(F)cc5)C(F)(F)F)cc4)c3s2)c1 (configuration not stated)
- IC50 [3]: 880 nM
- IC50 [1]: 20 nM
- IC50 [2]: 180 nM

Structure (SMILES): COc1cc2nccc(Oc3ccc(NC(=O)CC(Nc4ccccc4)C(F)(F)F)cc3F)c2cc1OC (configuration not stated)
- IC50 [1]: 360 nM
- IC50 [2]: 680 nM

Structure (SMILES): Cn1cnc(-c2cc3nccc(Oc4ccc(NC(=O)CC(=O)Nc5ccccc5)cc4F)c3s2)c1
- IC50 [1]: 20 nM
- IC50 [2]: 30 nM

Structure (SMILES): COc1ccccc1NC(=O)CC(Nc1ccc(Oc2ccnc3cc(-c4cn(C)cn4)sc23)c(F)c1)C(F)(F)F (configuration not stated)
- inhibition [16]: > 95%
- inhibition [17]: > 95%
- IC50 [3]: 1800 nM
- IC50 [1]: 20 nM
- IC50 [2]: 840 nM
- inhibition [18]: 50%
- inhibition [19]: < 50%
- inhibition [20]: < 50%
- inhibition [21]: < 50%
- inhibition [22]: < 50%
- inhibition [23]: < 50%
- inhibition [24]: < 50%
- inhibition [25]: < 50%
- inhibition [26]: < 50%
- inhibition [27]: < 50%
- inhibition [28]: < 50%
- inhibition [29]: < 50%
- inhibition [30]: < 50%
- inhibition [31]: < 50%
- inhibition [32]: < 50%
- inhibition [33]: < 50%
- inhibition [34]: < 50%
- inhibition [35]: < 50%
- inhibition [36]: < 50%
- inhibition [37]: < 50%
- inhibition [38]: 50%
- inhibition [39]: 50%
- inhibition [40]: 50%
- inhibition [41]: 50%

Structure (SMILES): COc1cc2nccc(Oc3ccc(NC(CC(=O)Nc4ccccc4)C(F)(F)F)cc3F)c2cc1OC (configuration not stated)
- IC50 [1]: 30 nM
- IC50 [2]: 910 nM

Structure (SMILES): Cn1cnc(-c2cc3nccc(Oc4ccc(NC(CC(=O)Nc5ccccc5)C(F)(F)F)cc4F)c3s2)c1 (configuration not stated)
- IC50 [1]: 10 nM

Further compounds by falling IC50 [1], results first:

- IC50 [1]: 1200 nM
- IC50 [2]: > 5000 nM
Structure (SMILES): O=C(CC(Nc1ccc(F)cc1)C(F)(F)F)Nc1ccc(Oc2cc(NC(=O)N3CCCC3)ncn2)c(F)c1 (configuration not stated)

- IC50 [1]: 210 nM
Structure (SMILES): Cn1cnc(-c2cc3nccc(Oc4ccc(NC(=O)CC(Nc5ccccc5)C(F)(F)F)cc4F)c3s2)c1 (configuration not stated)

- inhibition [4]: inactive
- inhibition [5]: inactive
- inhibition [6]: inactive
- inhibition [7]: inactive
- inhibition [8]: inactive
- inhibition [9]: Active
- inhibition [10]: Active
- IC50 [1]: 40 nM
- IC50 [2]: > 5000 nM
Structure (SMILES): O=C(CC(Nc1ccc(Oc2cc(NC(=O)N3CCCC3)ncn2)c(F)c1)C(F)(F)F)Nc1ccccc1 (configuration not stated)
- IC50 (HUVEC [11]): 40 nM
- IC50 (HUVEC [12]): 10 nM
- inhibition at 0.1 µM (HUVEC [13]): 97%
- IC50 (HUVEC [14]): 6 nM
- inhibition at 0.1 µM (HUVEC [15]): 95%

- IC50 [3]: 370 nM
- IC50 [1]: 20 nM
- IC50 [2]: 90 nM
Structure (SMILES): Cn1cnc(-c2cc3nccc(Oc4ccc(NC(CC(=O)Nc5ccc(F)cc5)C(F)(F)F)cc4F)c3s2)c1 (configuration not stated)
